Data on 20 compounds can be found in ChEMBL document CHEMBL1150351, “Design, synthesis, and biological evaluation of new-generation taxoids” (J Med Chem, 2008).

Assay [1] is described as follows: Cytotoxicity against Pgp deficient human LCC6 cells after 72 hrs by sulforhodamine B test. Format: functional, cell-based. The conditions noted are these: C6, 72 h.
Assay [2] deals with C6. Description: Resistance index, Ratio of IC50 for multidrug resistant Pgp expressing human LCC6 cells to IC50 for Pgp deficient human LCC6 cells. In kind it is functional. Also noted: reference not given here.
Assay [3] is described as follows: Cytotoxicity against multidrug resistant Pgp expressing human LCC6 cells after 72 hrs by sulforhodamine B test. Format: functional, cell-based. The conditions noted are these: LCC-6, 72 h. For orientation: Sulforhodamine B stains cellular protein and so reports cell mass.

The IC50 is the point on the concentration scale where inhibition reaches its midpoint. With `COc1ccccc1CCC(=O)O[C@H]1C(=O)[C@@]2(C)[C@H]([C@H](OC(=O)c3ccccc3)[C@]3(O)C[C@H](OC(=O)[C@H](O)[C@H](C=C(C)C)NC(=O)OC(C)(C)C)C(C)=C1C3(C)C)[C@]1(OC(C)=O)CO[C@@H]1C[C@@H]2O`, the IC50 in assay [1] stood at 1.5 nM; in assay [3], 5 nM. Besides, the “Ratio IC50” value in assay [2] is reported as 3.3.

As to `CCC(=O)O[C@H]1C(=O)[C@@]2(C)[C@H]([C@H](OC(=O)c3cccc(F)c3)[C@]3(O)C[C@H](OC(=O)[C@H](O)[C@H](C=C(C)C)NC(=O)OC(C)(C)C)C(C)=C1C3(C)C)[C@]1(OC(C)=O)CO[C@@H]1C[C@@H]2O`, the IC50 in assay [1] stood at 0.5 nM.

Consider `CC(=O)O[C@@]12CO[C@@H]1C[C@H](O)[C@@]1(C)C(=O)[C@H](OC(=O)c3ccc4ccccc4c3)C3=C(C)[C@@H](OC(=O)[C@H](O)[C@H](C=C(C)C)NC(=O)OC(C)(C)C)C[C@@](O)([C@@H](OC(=O)c4ccccc4)[C@H]21)C3(C)C`, for which the IC50 in assay [1] came to 6.3 nM; in assay [3], 15.2 nM. Moreover, in assay [2], the “Ratio IC50” value is on record as 2.4.

For the compound `COc1ccccc1CC(=O)O[C@H]1C(=O)[C@@]2(C)[C@H]([C@H](OC(=O)c3ccccc3)[C@]3(O)C[C@H](OC(=O)[C@H](O)[C@H](C=C(C)C)NC(=O)OC(C)(C)C)C(C)=C1C3(C)C)[C@]1(OC(C)=O)CO[C@@H]1C[C@@H]2O`, the results for the IC50 in assay [1] and in assay [3] were 2.3 nM and 13.8 nM, respectively. In addition, in assay [2], the “Ratio IC50” value is reported as 6.

As for `COc1ccc(CCC(=O)O[C@H]2C(=O)[C@@]3(C)[C@H]([C@H](OC(=O)c4ccccc4)[C@]4(O)C[C@H](OC(=O)[C@H](O)[C@H](C=C(C)C)NC(=O)OC(C)(C)C)C(C)=C2C4(C)C)[C@]2(OC(C)=O)CO[C@@H]2C[C@@H]3O)cc1`, the values for the IC50 in assay [1] and in assay [3] were 1.7 nM and 4.9 nM, respectively. The “Ratio IC50” value in assay [2] came out at 2.9.

With `CC(=O)O[C@@]12CO[C@@H]1C[C@H](O)[C@@]1(C)C(=O)[C@H](OC(=O)c3ccccc3)C3=C(C)[C@@H](OC(=O)[C@H](O)[C@H](C=C(C)C)NC(=O)OC(C)(C)C)C[C@@](O)([C@@H](OC(=O)c4ccccc4)[C@H]21)C3(C)C`, the values for the concentration for half-maximal inhibition (IC50) in assay [1] and in assay [3] were 1.8 nM and 4.8 nM, respectively. Moreover, the “Ratio IC50” value in assay [2] was 2.7.

`COc1cccc(CCC(=O)O[C@H]2C(=O)[C@@]3(C)[C@H]([C@H](OC(=O)c4ccccc4)[C@]4(O)C[C@H](OC(=O)[C@H](O)[C@H](C=C(C)C)NC(=O)OC(C)(C)C)C(C)=C2C4(C)C)[C@]2(OC(C)=O)CO[C@@H]2C[C@@H]3O)c1`: the IC50 was 3.7 nM in assay [1] and 6.7 nM in assay [3]. In addition, in assay [2], the “Ratio IC50” value was determined as 1.8.

For `CC(=O)O[C@@]12CO[C@@H]1C[C@H](O)[C@@]1(C)C(=O)[C@H](OC(=O)c3cccc4ccccc34)C3=C(C)[C@@H](OC(=O)[C@H](O)[C@H](C=C(C)C)NC(=O)OC(C)(C)C)C[C@@](O)([C@@H](OC(=O)c4ccccc4)[C@H]21)C3(C)C`, the IC50 in assay [1] was 5.3 nM; in assay [3], 15.2 nM. The “Ratio IC50” value in assay [2] is listed as 2.9.

As for `COc1cccc(CC(=O)O[C@H]2C(=O)[C@@]3(C)[C@H]([C@H](OC(=O)c4ccccc4)[C@]4(O)C[C@H](OC(=O)[C@H](O)[C@H](C=C(C)C)NC(=O)OC(C)(C)C)C(C)=C2C4(C)C)[C@]2(OC(C)=O)CO[C@@H]2C[C@@H]3O)c1`, the IC50 in assay [1] was 2.1 nM; in assay [3], 20.3 nM. For the same compound, in assay [2], the “Ratio IC50” value is listed as 9.7.

On to `COc1cccc(C(=O)O[C@H]2[C@@H]3[C@]4(OC(C)=O)CO[C@@H]4C[C@H](O)[C@@]3(C)C(=O)[C@H](OC(=O)C3CC3)C3=C(C)[C@@H](OC(=O)[C@H](O)[C@H](C=C(C)C)NC(=O)OC(C)(C)C)C[C@]2(O)C3(C)C)c1`, for which the IC50 in assay [1] came to 1 nM; in assay [3] it was 2.9 nM. In assay [2], the “Ratio IC50” value is listed as 2.9.

`C/C=C/[C@H](NC(=O)OC(C)(C)C)[C@@H](O)C(=O)O[C@H]1C[C@@]2(O)[C@@H](OC(=O)c3cccc(OC)c3)[C@@H]3[C@]4(OC(C)=O)CO[C@@H]4C[C@H](O)[C@@]3(C)C(=O)[C@H](OC(=O)CC)C(=C1C)C2(C)C`: inhibition in assay [1] was half-maximal at 1.2 nM (IC50).

On to `COc1ccc(C(=O)O[C@H]2C(=O)[C@@]3(C)[C@H]([C@H](OC(=O)c4ccccc4)[C@]4(O)C[C@H](OC(=O)[C@H](O)[C@H](C=C(C)C)NC(=O)OC(C)(C)C)C(C)=C2C4(C)C)[C@]2(OC(C)=O)CO[C@@H]2C[C@@H]3O)cc1`, for which the half-maximal inhibitory concentration (IC50) in assay [1] is 3.8 nM; in assay [3], 4.7 nM. Also, the “Ratio IC50” value in assay [2] is given as 1.2.

Consider `COc1cccc(C(=O)O[C@H]2C(=O)[C@@]3(C)[C@H]([C@H](OC(=O)c4ccccc4)[C@]4(O)C[C@H](OC(=O)[C@H](O)[C@H](C=C(C)C)NC(=O)OC(C)(C)C)C(C)=C2C4(C)C)[C@]2(OC(C)=O)CO[C@@H]2C[C@@H]3O)c1`, for which the IC50 in assay [1] turned out to be 2.8 nM; in assay [3], 5.1 nM. In addition, the “Ratio IC50” value in assay [2] is 1.8.

Take `CC(=O)O[C@@]12CO[C@@H]1C[C@H](O)[C@@]1(C)C(=O)[C@H](OC(=O)CCc3ccccc3)C3=C(C)[C@@H](OC(=O)[C@H](O)[C@H](C=C(C)C)NC(=O)OC(C)(C)C)C[C@@](O)([C@@H](OC(=O)c4ccccc4)[C@H]21)C3(C)C`: the IC50 in assay [1] was 5.1 nM; in assay [3] it was 31.2 nM. In addition, in assay [2], the “Ratio IC50” value is on record as 6.1.

As for `CCC(=O)O[C@H]1C(=O)[C@@]2(C)[C@H]([C@H](OC(=O)c3cccc(Cl)c3)[C@]3(O)C[C@H](OC(=O)[C@H](O)[C@H](C=C(C)C)NC(=O)OC(C)(C)C)C(C)=C1C3(C)C)[C@]1(OC(C)=O)CO[C@@H]1C[C@@H]2O`, 0.8 nM corresponded to half-maximal inhibition in assay [1] (IC50).

For the compound `COc1ccccc1C(=O)O[C@H]1C(=O)[C@@]2(C)[C@H]([C@H](OC(=O)c3ccccc3)[C@]3(O)C[C@H](OC(=O)[C@H](O)[C@H](C=C(C)C)NC(=O)OC(C)(C)C)C(C)=C1C3(C)C)[C@]1(OC(C)=O)CO[C@@H]1C[C@@H]2O`, the IC50 in assay [1] worked out at 2.1 nM; in assay [3], 5.8 nM. In addition, the “Ratio IC50” value in assay [2] is on record as 2.7.

Consider `C=Cc1cccc(C(=O)O[C@H]2[C@@H]3[C@]4(OC(C)=O)CO[C@@H]4C[C@H](O)[C@@]3(C)C(=O)[C@H](OC(=O)CC)C3=C(C)[C@@H](OC(=O)[C@H](O)[C@H](C=C(C)C)NC(=O)OC(C)(C)C)C[C@]2(O)C3(C)C)c1`, for which, in assay [1], the IC50 worked out at 2.9 nM.

`CC(=O)O[C@@]12CO[C@@H]1C[C@H](O)[C@@]1(C)C(=O)[C@H](O)C3=C(C)[C@@H](OC(=O)[C@H](O)[C@@H](NC(=O)OC(C)(C)C)c4ccccc4)C[C@@](O)([C@@H](OC(=O)c4ccccc4)[C@H]21)C3(C)C.O.O.O` [DOCETAXEL]: the IC50 in assay [1] turned out to be 1 nM; in assay [3] it was 120 nM.

Consider `CC(=O)O[C@@]12CO[C@@H]1C[C@H](O)[C@@]1(C)C(=O)[C@H](OC(=O)OCc3ccccc3)C3=C(C)[C@@H](OC(=O)[C@H](O)[C@H](C=C(C)C)NC(=O)OC(C)(C)C)C[C@@](O)([C@@H](OC(=O)c4ccccc4)[C@H]21)C3(C)C`, for which the 50% inhibitory concentration (IC50) in assay [1] was determined as 1.8 nM; in assay [3], 16.7 nM. Besides, the “Ratio IC50” value in assay [2] stood at 9.3.

In assay [1], `CCC(=O)O[C@H]1C(=O)[C@@]2(C)[C@H]([C@H](OC(=O)c3cccc(F)c3)[C@]3(O)C[C@H](OC(=O)[C@H](O)[C@H](CC(C)C)NC(=O)OC(C)(C)C)C(C)=C1C3(C)C)[C@]1(OC(C)=O)CO[C@@H]1C[C@@H]2O` had an IC50 of 0.4 nM.
